From the METLIN SMRT retention time set (Domingo-Almenara et al. 2019)

Assay: gradient 5% acetonitrile 3 min, to 50% in 2 min, to 85% in 15 min, held 3 min, 100 µL/min
Settings: column: Zorbax Extend-C18 2.1 x 50 mm; eluents: water / acetonitrile, 0.1% formic acid
How it was run: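 The mobile phases were water and acetonitrile, each with 0.1% formic acid, pumped at 100 μL/min through a Zorbax Extend-C18 column (2.1 × 50 mm, 1.8 μm). Pure standards were injected as mixtures of ~100 molecules and detected by a quadrupole time-of-flight mass spectrometer in positive and negative ionization mode. Retention time came from computationally picked adduct peaks, each inspected by hand.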

RP-LC retention time | Structure (SMILES)
708 s | COc1ccc(CC(=O)Nc2cc(-c3cccnc3)no2)cc1
1240 s | CCn1cc(-c2nc(C(=O)Nc3cc(C)ccc3F)cs2)c2cccnc21
1110 s | CSc1ccc(-c2noc(CN3C(=O)COc4ccccc43)n2)cc1
924 s | O=c1c2nc(-c3ccc(Br)cc3)cn2ccn1-c1ccc(F)c(F)c1
1090 s | COc1ccc(CN2C=C(C(=O)OCc3noc(-c4ccccc4F)n3)C(C)=NS2(=O)=O)cc1
1080 s | Cc1ccccc1Nc1c(-c2cccc(Cl)c2)nc2ccc(Cl)cn12
731 s | CC(C)C(=O)Nc1ccc(CCc2nc3ccc(C(=O)NCCC4=CCCCC4)cc3[nH]2)cc1
686 s | COc1cc(-c2nc3cc(C)ccn3c2Nc2ccc(C)cc2)ccc1O
1000 s | O=C(Cc1ccc(Cl)cc1)Nc1cnc(-c2ccccc2)nc1
1220 s | Cc1ccc(C)c(-c2coc(-c3ccc(NC(=O)NCc4ccccc4)cc3)n2)c1
948 s | COc1cccc(-c2cc(=O)c3ccccc3o2)c1N
827 s | CCc1noc(NC(C)=O)c1-c1ccc(C)c(S(=O)(=O)NCc2ccccc2OC)c1
871 s | CN1C(=O)C2CCCCN2c2ccc(C(=O)NCCc3c[nH]c4ccccc34)cc21 (centres undefined)
1070 s | Cc1ccc(Cn2c(=O)c(N3CCN(C(=O)Nc4ccc5c(c4)OCO5)CC3)nc3cccnc32)cc1
1100 s | Cc1ccc(C)c(S(=O)(=O)N2CCCN(C)c3ccccc32)c1
594 s | CN(C)c1cccc(C(=O)Nc2ccc(CC(=O)NC(C)(C)CO)cc2)c1
821 s | Cc1ccc(C(=O)Nc2ccc(-n3c(C)nc4ccccc4c3=O)cc2C)s1
812 s | CN1C(=O)c2cccnc2Sc2cc(NC(=O)Cc3ccccc3Cl)ccc21
907 s | CCc1ccc(Nc2nc(C(=O)NCCc3cccs3)nc3ccccc23)cc1
1100 s | COc1ccc(CN2C=C(C(=O)OCc3noc(-c4ccccc4)n3)C(C)=NS2(=O)=O)cc1
887 s | CCNC(=O)c1cccc(Nc2c(-c3ccc(SC)cc3)nc3cnccn23)c1
982 s | CCOc1ccc(NC(=O)N2c3ccccc3CC2c2nc(C3CC3)no2)cc1 (centres undefined)
878 s | O=C(CCSc1nnc2ccc3ccccc3n12)Nc1ccc(F)cc1
1150 s | CCOc1ccccc1-c1noc(Cn2c(=O)n(CC(C)C)c(=O)c3ccccc32)n1
1090 s | Cc1cccc(C)c1Nc1c(-c2cc(Br)ccc2O)nc2ncccn12
1080 s | COc1cccc(-c2cc3c(=O)n(Cc4nc(-c5cccc(Br)c5)no4)ccn3n2)c1
1060 s | C=CCN1C(=O)COc2ccc(-c3csc(NC(=O)c4cccc(C)c4)n3)cc21
1110 s | CC1CCN(c2nn(CC(=O)Nc3ccccc3)c(=O)c3ccccc23)CC1
1150 s | Cc1ccc(-c2noc(CCn3nc(-c4ccc(C)c(C)c4)ccc3=O)n2)cc1
757 s | CCOC(=O)c1ccc(NC(=O)c2ccc(-n3nncc3C)cc2)cc1

Second part, the compound before the results:

Structure (SMILES) | RP-LC retention time
COc1ccc(-c2ncc3c(n2)CCN(S(=O)(=O)c2ccc(C)c(Cl)c2)C3)cc1 | 1180 s
CC(C)c1ccc(NC(=O)C2CCN(S(=O)(=O)c3cn(C(C)C)cn3)CC2)cc1 | 900 s
CCCS(=O)(=O)N1CCc2nc(N3CCN(C)CC3)sc2C1 | 764 s
CC1(C(=O)N2CC(F)(F)C[C@H]2c2nc(-c3ccncc3)no2)CC1 | 735 s
Cc1oc(-c2[nH]ncc2C(=O)N(C)C)cc1S(=O)(=O)NC(C)C | 600 s
Cn1nc(-c2nnc(-c3ccc(F)cc3)o2)c2c1CCN(S(=O)(=O)Cc1ccccc1)C2 | 999 s
CCc1nnc2ccc(-c3noc(Cc4ccc(Cl)cc4)n3)cn12 | 932 s
Cc1ccc(C(=O)Nc2ccc(N3CCN(C4CCCC4)C3=O)nc2)cc1F | 918 s
COCC(C)NC(=O)C(=O)NCc1cccs1 (centres undefined) | 658 s
O=C(Cn1cnc2ccccc21)NCCNc1cc(-n2cccn2)ncn1 | 550 s
COc1ccc(-c2cn3c(CC(=O)Nc4ccc(Cl)cn4)csc3n2)cc1OC | 715 s
COc1ccc(S(=O)(=O)N2CCC(n3cnc4ccc(C)cc4c3=O)CC2)cc1OC | 827 s
O=C(Cn1c(=O)c2cc(C3CC3)nn2c2ncccc21)Nc1cccc(Cl)c1 | 848 s
Cn1c(=O)c(=O)n(C)c2cc(N3CCCC3)c(NC(=O)Cc3ccc(Cl)cc3)cc21 | 685 s
COc1cccc(OC)c1C(=O)N1CCCC1c1c(C)noc1C (centres undefined) | 665 s
CCc1ccc(CNC(=O)Cn2cnc3nc4c(cc3c2=O)CC(C)CC4)cc1 (centres undefined) | 855 s
CCN1CCN(C(=O)c2cc(-c3ccc(C)cc3)cn2CC)CC1 | 678 s
CC(C)(C)c1csc(-c2csc(S(=O)(=O)NCC3CCCCC3)c2)n1 | 1410 s
COCCCNC(=O)C1c2ccccc2CCN1C(C)=O (centres undefined) | 641 s
O=C(NCC1CCN(C2CCCC2)CC1)C(=O)Nc1ccc(OC(F)(F)F)cc1 | 611 s

Structure (SMILES) | RP-LC retention time
CCN1C(=O)Cc2ccccc2C1C(=O)NCc1cc(F)ccc1F (centres undefined) | 753 s
O=C(O)c1ccc(-c2nnc3ccc(NC(=O)C4CCC4)cn23)cc1 | 683 s
O=C1NCCCn2cc(S(=O)(=O)N3CCN(Cc4ccccc4)CC3)cc21 | 758 s
COc1ccc(CNC(=O)C2CCN(S(=O)(=O)c3ccc4c(c3)sc(=O)n4C)CC2)cc1 | 795 s
CCn1ccc2sc(C)c(C(=O)N3CCCCCC3)c2c1=O | 760 s
Cn1nc(-c2nnc(-c3ccc(F)cc3)o2)c2c1CCN(S(=O)(=O)c1ccc(F)cc1F)C2 | 985 s
CN1c2ccc(F)cc2C(=O)NC12CCN(C(=O)c1cccc(F)c1)CC2 | 751 s
Cc1ccccc1-c1noc(CCc2nnc3ccc(N4CCN(c5ccccn5)CC4)nn23)n1 | 647 s
CCCCN1CCN(S(=O)(=O)c2ccc(-c3nnc(C4CCCC4)o3)o2)CC1 | 678 s
Cc1noc(-c2ccc(OC3CN(C(=O)c4sccc4C)C3)cc2)n1 | 900 s
O=C(Nc1cccc(Cl)c1)C(=O)c1cn(CC(=O)N2CCOCC2)c2ccccc12 | 997 s
CSc1ccc(NC(=O)N2CCC(c3nc(C(=O)N4CCOCC4)c(C)o3)CC2)cc1 | 726 s
CC1CCCN(c2ccc(NC(=O)c3cccs3)cc2C(=O)O)C1 (centres undefined) | 666 s
CCOc1ccc(-c2nc(Cc3noc(-c4ccccn4)n3)c(C)o2)cc1 | 966 s
O=C(Cn1nc2c(cc1=O)CCCC2)Nc1ccc(N2CCCCS2(=O)=O)cc1 | 720 s
COc1cccc(NC(=O)CSc2cc(N3CCN(c4ccccc4OC)CC3)ncn2)c1 | 938 s
Cc1ccc(-c2nc3cnccn3c2NCCC(=O)NCC2CC2)cc1 | 636 s
COc1cc(C2CC(=O)N(CC(=O)N3CCCC3)c3ccccc3S2)cc(OC)c1OC (centres undefined) | 792 s
CCOCCCNC(=O)NCCn1cnc2cc(C(=O)N3CCCC3)ccc21 | 577 s
O=C(O)c1ccc(CCCc2ccc(OCCc3ccc(F)cc3)cc2)o1 | 1090 s

Structure (SMILES) | RP-LC retention time
O=C(NCc1ccccc1F)C1CCN(C(=O)c2ncn3c2COC(c2ccccc2)C3)CC1 (centres undefined) | 747 s
Cc1nc(C)c(C(=O)NCC23CCCC=C2N(C)C(=O)CC3)s1 (centres undefined) | 682 s
O=C(NC1CCCCCC1)c1nc(N2CCCC2)c2ccccc2n1 | 759 s
CCCCC(=O)Nc1ccc2nc(N3CCN(c4cccc(Cl)c4)CC3)cc(C(=O)O)c2c1 | 758 s
O=C(Nc1cc(F)ccc1F)N1CCc2nc[nH]c2C1 | 571 s
CCOC(=O)c1[nH]c2ccc(OC)cc2c1NC(=S)N1CCN(c2ccccn2)CC1 | 610 s
NC(=O)c1ccsc1NC(=O)c1ccccc1[N+](=O)[O-] | 669 s
O=C(c1ccc(Cl)cc1)N1CCN=C1N1CCCCC1 | 640 s
CCCNC(=O)Cn1c(C2CCCO2)nc2ccccc21 (centres undefined) | 593 s
Cc1cc(CNC(=O)c2cnccn2)no1 | 577 s
Cn1cccc1C(=O)C(=O)Nc1ccc(F)cc1Cl | 1070 s
O=C(C1CCCN(c2ccc3cc(S(=O)(=O)N4CCCC4)ccc3n2)C1)N1CCc2ccccc21 (centres undefined) | 884 s
CCN(CC)CCNC(=O)CCC(=O)N1CCc2c(c(C(=O)N3CCCCC3)nn2C)C1 | 573 s
CCOc1ccccc1CNC(=O)c1cnc(OC)nc1 | 702 s
Cc1cccc(-c2noc(Cc3nnc(-c4ccc(F)cc4)o3)n2)c1 | 1070 s
Cc1ccc(Cl)cc1NC(=O)Cn1ncc2c(c1=O)N(CC1CC1)C(=O)CS2 | 860 s
O=C(C1=CN(c2cc(Cl)cc(Cl)c2)c2cc(F)ccc2S1(=O)=O)N1CCOCC1 | 875 s
Cc1ccnn1-c1ccc(SCC(=O)Nc2cc(F)ccc2F)nn1 | 934 s
COc1cccc(CC(=O)N2CCC3(CC2)N=C(c2ccc(Cl)cc2)NO3)c1 | 922 s
